Source: patent US7803930B2, “Antisense modulation of apolipoprotein B-expression” (Isis Pharmaceuticals, Inc., priority 2002, dated 2010)
In the oligonucleotide strings, read from the 5' end, every base follows the letter of its sugar. An asterisk marks phosphorothioate; unmarked linkages are phosphodiester. Other units and linkages are bracketed, terminal groups are in braces. A string of capitals states the bases alone. e = 2'-O-(2-methoxyethyl) (MOE); [5mC] = 5-methylcytosine; d = 2'-deoxy (DNA)

Test system: human apolipoprotein B mRNA
Test: Inhibition of human apolipoprotein B mRNA levels in HepG2 cells, quantitative real-time PCR
Format: cell-based
Conditions: for % INHIB (inhibition of human apolipoprotein B mRNA levels): HepG2 cells treated with 150 nM of compound, quantitative real-time PCR; for % Change in apolipoprotein B mRNA expression / % INHIB / % INHIB 50 nm / % INHIB 150 nm: HepG2 cells; for % Change in apolipoprotein B mRNA expression: 24 hour (Table 41)
Outline: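 Apolipoprotein B transcript was quantified by one-step TaqMan RT-PCR, normalized to GAPDH or RiboGreen RNA, and expressed as percent inhibition against an untreated-sample standard curve. HepG2 cells were harvested 16-24 h after oligonucleotide exposure, which was delivered with 3.75 μg/mL Lipofectin over 4-7 h at 80% confluency.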

[1] = Table 1, 150 nM, averages from two experiments
[2] = human apolipoprotein B mRNA, oligonucleotides targeting genomic sequence SEQ ID NO 334, averages from two experiments
[3] = 50 nm oligonucleotide, variable deoxy gap position
[4] = 150 nm oligonucleotide, variable deoxy gap position
[5] = Table 11 gene walk, 50 nM, averages from two experiments
[6] = Table 11 gene walk, 150 nM, averages from two experiments

Substance	% INHIB (inhibition of human apolipoprotein B mRNA levels) (averages from two experiments) [%]	% INHIB [2] [%]	also measured
271039 (eT*eA*eG*eA*eG*dG*d[5mC]*dT*dA*dA*d[5mC]*dG*dT*dA*d[5mC]*e[5mC]*eA*eT*e[5mC]*eT; antisense) [compound 271039]	4		
332780 (antisense CCTCAGTCTGCTTCGCAC; sugars from the 5' end e4 d10 e4, all phosphorothioate, methylation of C not given here) [compound 332780]			% Change in apolipoprotein B mRNA expression (10 nM): −3%; % Change in apolipoprotein B mRNA expression (50 nM): −43%; % Change in apolipoprotein B mRNA expression (150 nM): −74%
147826 (antisense eT*e[5mC]*eA*eG*eG*dG*dT*dG*dA*dG*d[5mC]*d[5mC]*d[5mC]*dT*dG*eT*eG*eT*eG*eT) [compound 147826]			% INHIB [1]: 80%
301107 (antisense eT*eT*e[5mC]*eT*eT*dA*dG*dT*dA*d[5mC]*d[5mC]*dT*dG*dG*dA*eA*eG*eA*eT*eG) [compound 301107]		23	
271024 (eG*e[5mC]*eT*e[5mC]*eA*d[5mC]*dT*dG*dT*dT*d[5mC]*dA*dG*d[5mC]*dA*eT*e[5mC]*eT*eG*eG; antisense) [compound 271024]			% INHIB (Table 12, 150 nM, averages from two experiments): 27%
308632 (GCCTCAGTCTGCTTCGCACC; 0-10-10 MOE gapmer, phosphorothioate, chemistry not fully specified) [compound 308632]			% INHIB 50 nm [3]: 41%; % INHIB 150 nm [4]: 97%
301026 (eA*eT*eA*eT*eA*dG*dG*d[5mC]*dA*dG*dT*dT*dT*dG*dA*eA*eT*eT*eT*eT; antisense) [compound 301026]	57		
301105 (antisense eG*eG*e[5mC]*e[5mC]*eA*dT*dG*dT*dA*dA*dA*dT*dT*dG*d[5mC]*eT*e[5mC]*eA*eT*e[5mC]) [compound 301105]		7	
301159 (eT*eG*e[5mC]*eT*eT*dT*dA*d[5mC]*d[5mC]*dT*dA*d[5mC]*d[5mC]*dT*dA*eG*e[5mC]*eT*eA*e[5mC]; antisense) [compound 301159]		36	
281629 (antisense eT*e[5mC]*e[5mC]*eA*eA*dG*dT*d[5mC]*d[5mC]*dT*dG*dG*d[5mC]*dT*dG*eT*eA*eT*eT*e[5mC]) [compound 281629]	83		
271044 (e[5mC]*e[5mC]*e[5mC]*eA*eG*dT*dG*dG*dT*dG*d[5mC]*d[5mC]*dA*d[5mC]*dT*eG*eG*e[5mC]*eT*eG; antisense) [compound 271044]	22		
301102 (antisense eT*e[5mC]*e[5mC]*eA*eG*dA*d[5mC]*dT*dT*dG*dT*d[5mC]*dT*dG*dA*eG*eT*e[5mC]*eT*eA) [compound 301102]		47	
301040 (eG*e[5mC]*e[5mC]*e[5mC]*eT*dG*dG*dT*dG*d[5mC]*d[5mC]*dA*dG*d[5mC]*dT*eT*eT*eG*eG*eT; antisense) [compound 301040]	74		
308646 (antisense AGGTTACCAGCCACATGCAG; 4-10-6 2'-MOE gapmer, phosphorothioate, chemistry not fully specified) [compound 308646]			% INHIB 50 nm [3]: 50%; % INHIB 150 nm [4]: 76%
301088 (antisense eA*eT*eG*eT*eT*d[5mC]*dA*d[5mC]*dT*dG*dA*dG*dA*d[5mC]*dA*eG*eG*e[5mC]*eT*eG) [compound 301088]		41	
308633 (GCCTCAGTCTGCTTCGCGCC; 10-10-0 MOE gapmer, phosphorothioate, chemistry not fully specified) [compound 308633]			% INHIB 50 nm (Table 17 variable gap, 50 nM, averages from three experiments): 66%; % INHIB 150 nm (Table 17 variable gap, 150 nM, averages from three experiments): 83%
147801 (antisense e[5mC]*eA*eG*eA*e[5mC]*d[5mC]*d[5mC]*dG*dA*d[5mC]*dT*d[5mC]*dG*dT*dG*eG*eA*eA*eG*eA) [compound 147801]			% INHIB [1]: 38%
301168 (antisense e[5mC]*eA*e[5mC]*eT*e[5mC]*dA*dT*dG*dA*d[5mC]*d[5mC]*dA*dG*dA*d[5mC]*eT*eA*eA*eG*eA) [compound 301168]		35	
281603 (antisense eT*eA*eT*e[5mC]*eT*dG*d[5mC]*d[5mC]*dT*dG*dT*dG*dA*dA*dG*eG*eA*e[5mC]*eT*e[5mC]) [compound 281603]	82		
308612 (eG*eG*eT*eT*eA*d[5mC]*d[5mC]*dA*dG*d[5mC]*d[5mC]*dA*d[5mC]*dA*dT*eG*e[5mC]*eA*eG*e[5mC]; antisense) [compound 308612]			% INHIB 50 nm [5]: 75%; % INHIB 150 nm [6]: 90%

Substance	% INHIB (inhibition of human apolipoprotein B mRNA levels) (averages from two experiments) [%]	% INHIB [2] [%]	also measured
308601 (antisense eT*eG*eG*eT*eA*dG*d[5mC]*d[5mC]*dT*d[5mC]*dA*dG*dT*d[5mC]*dT*eG*e[5mC]*eT*eT*e[5mC]) [compound 308601]			% INHIB 50 nm [5]: 63%; % INHIB 150 nm [6]: 91%
308611 (eT*eT*eA*e[5mC]*e[5mC]*dA*dG*d[5mC]*d[5mC]*dA*d[5mC]*dA*dT*dG*d[5mC]*eA*eG*e[5mC]*eT*eT; antisense) [compound 308611]			% INHIB 50 nm [5]: 59%; % INHIB 150 nm [6]: 95%
301154 (e[5mC]*eA*eG*e[5mC]*e[5mC]*dT*dG*d[5mC]*dA*dT*d[5mC]*dT*dA*dT*dA*eA*eG*eT*e[5mC]*eA; antisense) [compound 301154]		31	
308613 (eT*eA*eG*eG*eT*dT*dA*d[5mC]*d[5mC]*dA*dG*d[5mC]*d[5mC]*dA*d[5mC]*eA*eT*eG*e[5mC]*eA; antisense) [compound 308613]			% INHIB 50 nm [5]: 43%; % INHIB 150 nm [6]: 87%
281605 (antisense e[5mC]*eT*eT*e[5mC]*e[5mC]*dA*dA*dG*d[5mC]*d[5mC]*dA*dA*dT*d[5mC]*dT*e[5mC]*eG*eA*eT*eG) [compound 281605]	82		
301132 (eT*e[5mC]*eA*e[5mC]*eA*d[5mC]*dT*dT*dA*d[5mC]*d[5mC]*dT*d[5mC]*dG*dA*eT*eG*eA*eG*eG; antisense) [compound 301132]		29	
147807 (antisense eG*eG*e[5mC]*eG*eT*dA*dG*dA*dG*dA*d[5mC]*d[5mC]*d[5mC]*dA*dT*e[5mC]*eA*e[5mC]*eA*eT) [compound 147807]			% INHIB [1]: 25%
281614 (antisense eT*eA*eA*eG*e[5mC]*dT*dG*dT*dA*dG*d[5mC]*dA*dG*dA*dT*eG*eA*eG*eT*e[5mC]) [compound 281614]	63		
301129 (e[5mC]*eA*eT*eT*eT*dG*d[5mC]*dA*d[5mC]*dA*dA*dG*dT*dG*dT*eT*eT*eG*eT*eT; antisense) [compound 301129]		35	
271041 (e[5mC]*e[5mC]*eA*eT*eA*dT*d[5mC]*d[5mC]*dA*dT*dG*d[5mC]*d[5mC]*d[5mC]*dA*e[5mC]*eG*eG*eT*eG; antisense) [compound 271041]	37		
301171 (antisense eT*eA*eT*eT*eT*dA*dA*dT*dT*dT*dA*d[5mC]*dT*dG*dA*eG*eA*eA*eA*e[5mC]) [compound 301171]		7	
281641 (e[5mC]*e[5mC]*eG*eA*eA*d[5mC]*d[5mC]*d[5mC]*dT*dT*dG*dA*d[5mC]*dA*dT*e[5mC]*eT*e[5mC]*e[5mC]*eT; antisense) [compound 281641]	72		
301169 (antisense eA*e[5mC]*e[5mC]*eT*e[5mC]*d[5mC]*d[5mC]*dA*dG*dA*dA*dG*d[5mC]*d[5mC]*dT*eT*e[5mC]*e[5mC]*eA*eT) [compound 301169]		22	
301199 (antisense eT*e[5mC]*eT*e[5mC]*e[5mC]*dA*dG*dA*dT*d[5mC]*d[5mC]*dT*dA*dA*d[5mC]*eA*eT*eA*eA*eA) [compound 301199]		19	
271018 (antisense eA*eT*eG*eT*eG*dA*dA*dA*d[5mC]*dT*dT*dG*dT*d[5mC]*dT*e[5mC]*eT*e[5mC]*e[5mC]*e[5mC]) [compound 271018]	44		
301048 (eT*eT*e[5mC]*e[5mC]*eT*d[5mC]*d[5mC]*dT*d[5mC]*d[5mC]*d[5mC]*d[5mC]*d[5mC]*dA*dA*eG*eT*eT*eT*eA; antisense) [compound 301048]	67		
271043 (e[5mC]*e[5mC]*e[5mC]*eA*eG*dT*dG*dG*dT*dA*d[5mC]*dT*dT*dG*dT*eT*eG*eA*e[5mC]*eA; antisense) [compound 271043]	68		
270988 (antisense eG*eG*eG*eT*eT*dG*dA*dA*dG*d[5mC]*d[5mC]*dA*dT*dA*d[5mC]*eA*e[5mC]*e[5mC]*eT*e[5mC]) [compound 270988]	6		
301194 (antisense eG*eT*eT*e[5mC]*eT*d[5mC]*dA*dT*dG*dT*dT*dT*dA*d[5mC]*dT*eA*eA*eT*eG*e[5mC]) [compound 301194]		40	
